Data published in paper PMC5786788, “Antimicrobial Octapeptin C4 Analogues Active against Cryptococcus Species” (Antimicrobial Agents and Chemotherapy, 2018).
≈ marks a conversion by molar mass, not a printed value. Like-named read-outs stand apart in the source and are kept apart here. Where a SMILES comes first, the peptide text is derived from it. Bridges are numbered along the chain shown (N, C = ends). [ ]: non-standard residue; d: D form. The star is where a group is joined. Decanoyl(3R-OH) = CCCCCCC[C@@H](O)CC(=O)*; dDab = NCC[C@@H](N)C(=O)O; Dab = NCC[C@H](N)C(=O)O

How the values were obtained:
[1] = system: C. neoformans var. grubii; test: organism not typed
Experimental: The MICs of the yeast strains for PMB, PME, and octapeptin C4 and its derivatives were determined in accordance with CLSI M27-A2 guidelines using YNB (Becton Dickinson, USA) medium supplemented with 10 mM ammonium sulfate and 2% glucose, a final inoculum concentration of 1.5 × 10^3 to 2.0 × 10^3 cells/ml, and incubation at 35°C for 72 h ([39]). […] The MICs for PMB, PME, and octapeptin C4 for A. fumigatus were determined in accordance with the CLSI M38-A2 guidelines ([40]) using synthetic RPMI 1640 medium (with glutamine, without bicarbonate and with phenol red; Life Technologies, USA). The final inoculum concentration was 0.4 × 10^4 to 5 × 10^4 cells/ml, with incubation at 35°C for 48 h. […] All assays were completed in triplicate. Fluconazole was used as a positive control where the MIC was determined at both 50% growth (in accordance with CLSI M27-A2 guidelines) and when there was a “no visible growth” reading. […]

[2] = system: C. neoformans var. gattii; test: microbe, parasite or virus in culture; conditions: no visible growth
Experimental: (§1) The MICs of the yeast strains for PMB, PME, and octapeptin C4 and its derivatives were determined in accordance with CLSI M27-A2 guidelines using YNB (Becton Dickinson, USA) medium supplemented with 10 mM ammonium sulfate and 2% glucose, a final inoculum concentration of 1.5 × 10^3 to 2.0 × 10^3 cells/ml, and incubation at 35°C for 72 h ([39]). […] The MICs for PMB, PME, and octapeptin C4 for A. fumigatus were determined in accordance with the CLSI M38-A2 guidelines ([40]) using synthetic RPMI 1640 medium (with glutamine, without bicarbonate and with phenol red; Life Technologies, USA). The final inoculum concentration was 0.4 × 10^4 to 5 × 10^4 cells/ml, with incubation at 35°C for 48 h. […] All assays were completed in triplicate. Fluconazole was used as a positive control where the MIC was determined at both 50% growth (in accordance with CLSI M27-A2 guidelines) and when there was a “no visible growth” reading.

[3] = system: C. neoformans var. neoformans; test: microbe, parasite or virus in culture; conditions: Cryptococcus neoformans, no visible growth
Experimental: as §1

C. gattii MMRL 2651 = system: C. gattii MMRL 2651
Experimental: (§2) A broth microdilution assay was initially used to characterize the antifungal activity of the cyclic lipopeptides ([39], [40]). […] common pathogenic yeasts (C. albicans, C. glabrata, C. parapsilosis, C. neoformans, and C. gattii) and one pathogenic mold (A. fumigatus) were tested to determine the MIC for each compound (Table 1) using broth microdilution. […] The only structural difference between these molecules is the presence of a phenylalanine residue at position 6 in PMB; in PME a D-leucine is present at this location (Fig. 1).
(§3) Fungal strains were stored in 15% glycerol at −80°C until use. The fungal strains used were H99 (C. neoformans type strain) ([55]), cap59Δ (an acapsular H99 mutant) ([56]), ATCC 90113 (C. neoformans), MMRL 2651 (C. gattii), ATCC 90028 (Candida albicans), ATCC 90030 (Candida glabrata), ATCC 22019 (Candida parapsilosis), and ATCC MYA 3626 (Aspergillus fumigatus). Yeasts were cultured in liquid (1% yeast extract, 2% Bacto peptone, 2% glucose) or solid (additional 2% agar) yeast extract-peptone-dextrose (YPD) media at 30°C and maintained at 4°C for no longer than 2 weeks. A. fumigatus was prepared on potato dextrose medium at 30°C and maintained at 4°C for no longer than 2 weeks.
as §1

C. neoformans ATCC 90113 = conditions: ATCC 90113, 72 h
Experimental: as §2, §3, §1

C. neoformans H99 = conditions: H99, 72 h
Experimental: as §2, §3, §1

[4] = system: C. neoformans H99 (cap59Δ); assay type: cell-based, Cryptococcus neoformans; conditions: Table 2; triplicate, values consistent across replicates
Excerpt: The different susceptibility of C. neoformans and C. gattii to PMB compared to other pathogenic fungi such as C. albicans and A. fumigatus has been postulated to arise from differences in cell surface composition ([38]). One key difference is the presence of a negatively charged polysaccharide capsule in Cryptococcus spp. proposed to concentrate the cationic lipopeptides at the cell surface ([38]). To examine this potential interaction for the octapeptin series, a C. neoformans cap59Δ mutant strain deficient in the secretion of negatively charged glucuronoxylomannan (an α1–3-linked mannan containing β1,2 and β1,4 xylosyl substitutions, as well as β1,2-linked glucuronyl residues) ([41], [42]), was tested against octapeptin C4 in comparison to PMB.
as §3, §1

[5] = Table 2, C. gattii, triplicate, values consistent across replicates

C[C@@H]1[C@H](O)[C@@H](C)/C=C/C=C/C=C/C=C/C=C/C=C/C=C/[C@H](O[C@@H]2O[C@H](C)[C@@H](O)[C@H](N)[C@@H]2O)C[C@@H]2O[C@](O)(C[C@@H](O)C[C@@H](O)[C@H](O)CC[C@@H](O)C[C@@H](O)CC(=O)O[C@H]1C)C[C@H](O)[C@H]2C(=O)O [Amphotericin B, amphotericin B]
MIC [1]: 3.13 µg/mL (≈ 3.39 µM)
MIC ([1]; Cryptococcus neoformans): 3.13 µg/mL (≈ 3.39 µM)
MIC ([1]; strain 486 (USA), no visible growth): 3.13 µg/mL (≈ 3.39 µM)
MIC ([1]; strain 488 (AIDS+, pre-HAART USA), no visible growth): 3.13 µg/mL (≈ 3.39 µM)
MIC ([1]; strain 490 (USA), no visible growth): 3.13 µg/mL (≈ 3.39 µM)
MIC ([1]; strain 496 (USA), no visible growth): 3.13 µg/mL (≈ 3.39 µM)
MIC ([1]; strain 500 (USA), no visible growth): 3.13 µg/mL (≈ 3.39 µM)
MIC ([1]; strain 502 (ARR3+ USA), no visible growth): 3.13 µg/mL (≈ 3.39 µM)
MIC ([1]; strain 505 (India), no visible growth): 3.13 µg/mL (≈ 3.39 µM)
MIC ([1]; strain 507 (India), no visible growth): 3.13 µg/mL (≈ 3.39 µM)
MIC ([1]; strain 510 (VNII India), no visible growth): 3.13 µg/mL (≈ 3.39 µM)
MIC ([1]; strain 512 (India), no visible growth): 3.13 µg/mL (≈ 3.39 µM)
MIC ([1]; strain 516 (India), no visible growth): 3.13 µg/mL (≈ 3.39 µM)
MIC ([1]; strain 518 (VNI India), no visible growth): 3.13 µg/mL (≈ 3.39 µM)
MIC ([1]; strain 522 (India), no visible growth): 3.13 µg/mL (≈ 3.39 µM)
MIC ([1]; strain 525 (India), no visible growth): 3.13 µg/mL (≈ 3.39 µM)
MIC ([1]; strain 1188 (Japan lung), no visible growth): 3.13 µg/mL (≈ 3.39 µM)
MIC ([1]; strain 1194 (Italy), no visible growth): 3.13 µg/mL (≈ 3.39 µM)
MIC ([1]; strain 1196 (Botswana CSF/AIDS), no visible growth): 3.13 µg/mL (≈ 3.39 µM)
MIC ([1]; strain 1197 (Botswana CSF/AIDS), no visible growth): 3.13 µg/mL (≈ 3.39 µM)
MIC ([1]; strain H99O (lab strain), no visible growth): 3.13 µg/mL (≈ 3.39 µM)
MIC ([1]; strain H99 stud (lab strain), no visible growth): 3.13 µg/mL (≈ 3.39 µM)
MIC ([2]; Cryptococcus neoformans, ATCC32269, strain ATCC 32269): 3.13 µg/mL (≈ 3.39 µM)
MIC ([2]; Cryptococcus neoformans, ATCC32609, strain ATCC 32609 (NIH444)): 3.13 µg/mL (≈ 3.39 µM)
MIC ([2]; Cryptococcus neoformans, ATCC34878, strain ATCC 34878): 3.13 µg/mL (≈ 3.39 µM)
MIC ([2]; Cryptococcus neoformans, ATCC34882, strain ATCC 34882): 3.13 µg/mL (≈ 3.39 µM)
MIC ([2]; Cryptococcus neoformans, strain 93/980 (CSF France)): 3.13 µg/mL (≈ 3.39 µM)
MIC ([2]; Cryptococcus neoformans, strain 94/943-6 (CSF Mexico)): 3.13 µg/mL (≈ 3.39 µM)
MIC ([2]; Cryptococcus neoformans, strain 94/943-8 (CSF Mexico)): 3.13 µg/mL (≈ 3.39 µM)
MIC ([2]; Cryptococcus neoformans, strain R270 (Vancouver Island)): 12.5 µg/mL (≈ 13.5 µM)
MIC ([2]; strain 96/1120-2 (CSF HIV2 France)): 12.5 µg/mL (≈ 13.5 µM)
MIC ([3]; strain WM 01.127 (USA)): 3.13 µg/mL (≈ 3.39 µM)
MIC ([3]; strain WM 02.141 (Russia)): 3.13 µg/mL (≈ 3.39 µM)
MIC ([3]; strain WM 02.143 (Russia)): 3.13 µg/mL (≈ 3.39 µM)
MIC ([3]; strain WM 02.37 (Canada)): 3.13 µg/mL (≈ 3.39 µM)
MIC ([3]; strain WM 04.168 (Chile)): 3.13 µg/mL (≈ 3.39 µM)
MIC ([3]; strain WM 04.171 (Thailand, environmental)): 3.13 µg/mL (≈ 3.39 µM)
MIC ([3]; strain WM 05.467 (Brazil, environmental)): 3.13 µg/mL (≈ 3.39 µM)
MIC ([3]; strain WM 05.515 (Peru)): 3.13 µg/mL (≈ 3.39 µM)
MIC ([3]; strain WM 09.109 (Italy, environmental)): 3.13 µg/mL (≈ 3.39 µM)
MIC ([3]; strain WM 09.112 (USA)): 3.13 µg/mL (≈ 3.39 µM)
MIC ([3]; strain WM 10.119 (Australia)): 3.13 µg/mL (≈ 3.39 µM)
MIC ([3]; strain WM 629 (Australia)): 3.13 µg/mL (≈ 3.39 µM)
MIC ([3]; strain WM 1706 (Argentina)): 3.13 µg/mL (≈ 3.39 µM)
MIC ([3]; strain WM 1740 (Chile)): 3.13 µg/mL (≈ 3.39 µM)
MIC ([3]; strain WM 2207 (USA, environmental)): 3.13 µg/mL (≈ 3.39 µM)
MIC ([3]; strain WM 2242 (USA)): 3.13 µg/mL (≈ 3.39 µM)
MIC ([3]; strain WM 2530 (USA)): 3.13 µg/mL (≈ 3.39 µM)

CCCCCCC[C@@H](O)CC(=O)N[C@H](C)C(=O)N[C@H]1CCNC(=O)[C@H](CC(C)C)NC(=O)[C@H](CCN)NC(=O)[C@H](CCN)NC(=O)[C@H](CC(C)C)NC(=O)[C@@H](Cc2ccccc2)NC(=O)[C@H](CCN)NC1=O [Compound P1D] ({Decanoyl(3R-OH)}-[dA][Dab][Dab][dF]L[Dab][Dab]L; lactam 2-C)
MICs against various Cryptococcus strains: MMRL 2651 (C. gattii MMRL 2651; [5]): 12.5 µg/mL
MICs against various Cryptococcus strains: ATCC 90113 (C. neoformans ATCC 90113): 6.25 µg/mL
MICs against various Cryptococcus strains: H99 (C. neoformans H99): 6.25 µg/mL
MICs against various Cryptococcus strains: H99 (cap59Δ) [4]: 12.5 µg/mL

CCCCCCC[C@@H](O)CC(=O)N[C@@H](C)C(=O)N[C@H]1CCNC(=O)[C@H](CC(C)C)NC(=O)[C@H](CCN)NC(=O)[C@H](CCN)NC(=O)[C@H](CC(C)C)NC(=O)[C@@H](Cc2ccccc2)NC(=O)[C@H](CCN)NC1=O [Compound P1L] ({Decanoyl(3R-OH)}-A[Dab][Dab][dF]L[Dab][Dab]L; lactam 2-C)
MICs against various Cryptococcus strains: MMRL 2651 (C. gattii MMRL 2651; 72 h): 12.5 µg/mL
MICs against various Cryptococcus strains: ATCC 90113 (C. neoformans ATCC 90113): 12.5 µg/mL
MICs against various Cryptococcus strains: H99 (C. neoformans H99): 12.5 µg/mL
MICs against various Cryptococcus strains: H99 (cap59Δ) [4]: 25.0 µg/mL

CCCCCCC[C@@H](O)CC(=O)N[C@H](CCN)C(=O)N[C@H]1CCNC(=O)[C@H](CC(C)C)NC(=O)[C@H](CCN)NC(=O)[C@H](CCN)NC(=O)[C@H](CC(C)C)NC(=O)[C@@H](Cc2ccccc2)NC(=O)[C@H](C)NC1=O [Compound P3] ({Decanoyl(3R-OH)}-[dDab][Dab]A[dF]L[Dab][Dab]L; lactam 2-C)
MICs against various Cryptococcus strains: MMRL 2651 (C. gattii MMRL 2651; [5]): 12.5 µg/mL
MICs against various Cryptococcus strains: ATCC 90113 (C. neoformans ATCC 90113): 6.25 µg/mL
MICs against various Cryptococcus strains: H99 (C. neoformans H99): 6.25 µg/mL
MICs against various Cryptococcus strains: H99 (cap59Δ) [4]: 12.5 µg/mL

CCCCCCC[C@@H](O)CC(=O)N[C@H](CCN)C(=O)N[C@H]1CCNC(=O)[C@H](CC(C)C)NC(=O)[C@H](CCN)NC(=O)[C@H](CCN)NC(=O)[C@H](CC(C)C)NC(=O)[C@@H](C)NC(=O)[C@H](CCN)NC1=O [Compound P4D] ({Decanoyl(3R-OH)}-[dDab][Dab][Dab][dA]L[Dab][Dab]L; lactam 2-C)
MICs against various Cryptococcus strains: MMRL 2651 (C. gattii MMRL 2651; 72 h): 25.0 µg/mL
MICs against various Cryptococcus strains: ATCC 90113 (C. neoformans ATCC 90113): 12.5 µg/mL
MICs against various Cryptococcus strains: H99 (C. neoformans H99): 12.5 µg/mL
MICs against various Cryptococcus strains: H99 (cap59Δ) [4]: 50.0 µg/mL
